Assay results reported in ChEMBL document CHEMBL1955764, “Synthesis and biological activity of 23-ethylidene-26-hydroxy-22-oxocholestane derivatives from spirostanic sapogenins” (Eur J Med Chem, 2012).
pIC50: −log10 of the molar value. Activity calls are given as the source filed them. No cut-off for these calls is given here.

What was measured:
CCRF-CEM [1] = experiment: Cytotoxicity against human CEM cells after 72 hrs by calcein AM assay; format: functional, cell-based
MCF7 = experiment: Cytotoxicity against human MCF7 cells after 72 hrs by calcein AM assay; format: functional, cell-based; conditions: MCF7, 72 h
HeLa = experiment: Cytotoxicity against human HeLa cells after 72 hrs by calcein AM assay; format: functional, cell-based
BJ = experiment: Cytotoxicity against human BJ cells after 72 hrs by calcein AM assay; format: cell-based
CCRF-CEM [2] = experiment: Cell cycle arrest in human CEM cells assessed as increase of cleaved of PARP level after 24 hrs by Western blotting analysis; format: functional, cell-based
CCRF-CEM [3] = experiment: Cell cycle arrest in human CEM cells assessed as accumulation at sub-G1 phase at 5 to 50 uM after 24 hrs using propidium iodide staining by flow cytometric analysis; format: functional, cell-based
CCRF-CEM [4] = experiment: Cell cycle arrest in human CEM cells assessed as increase of cleaved of PARP level at 50 uM after 24 hrs by Western blotting analysis; format: functional, cell-based
CCRF-CEM [5] = experiment: Induction of apoptosis in human CEM cells assessed as increase of caspase 3/7 activity using Ac-DEVD-AMC as substrate at 50 uM after 24 hrs relative to control; format: functional
CCRF-CEM [6] = experiment: Cell cycle arrest in human CEM cells assessed as decrease of procaspase 3 level at 50 uM after 24 hrs by Western blotting analysis; format: functional, cell-based
CCRF-CEM [7] = experiment: Cell cycle arrest in human CEM cells assessed as accumulation at G1 phase after 24 hrs using propidium iodide staining by flow cytometric analysis; format: functional, cell-based
CCRF-CEM [8] = experiment: Cell cycle arrest in human CEM cells assessed as decrease of procaspase 3 level after 24 hrs by Western blotting analysis; format: functional, cell-based
CCRF-CEM [9] = experiment: Cell cycle arrest in human CEM cells assessed as accumulation at G0/G1 phase at 5 to 50 uM after 24 hrs using propidium iodide staining by flow cytometric analysis; format: functional, cell-based
CCRF-CEM [10] = experiment: Cell cycle arrest in human CEM cells assessed as accumulation at G2/M phase at 5 to 50 uM after 24 hrs using propidium iodide staining by flow cytometric analysis; format: functional, cell-based

CC(=O)O[C@H]1CC[C@@]2(C)C(=CC[C@H]3[C@@H]4C[C@H](OC(C)=O)[C@H]([C@H](C)C(=O)C5=C(C)OC[C@H](C)C5)[C@@]4(C)[C@H](O)C[C@@H]32)C1
pIC50 (CCRF-CEM [1]): 4.86 | pIC50 (MCF7): < 4.30 | pIC50 (HeLa): < 4.30 | pIC50 (BJ): < 4.30

CC(=O)O[C@H]1CC[C@@]2(C)[C@@H](CC[C@@H]3[C@@H]2CC[C@]2(C)[C@@H]([C@H](C)C(=O)C4=C(C)OC[C@H](C)C4)[C@@H](OC(C)=O)C[C@@H]32)C1
pIC50 (CCRF-CEM [1]): 4.68 | pIC50 (MCF7): 4.45 | pIC50 (HeLa): < 4.30 | pIC50 (BJ): < 4.30

CC(=O)O[C@H]1CC[C@@]2(C)C(=CC[C@H]3[C@@H]4C[C@H](OC(C)=O)[C@H]([C@H](C)C(=O)C5=C(C)OC[C@H](C)C5)[C@@]4(C)CC[C@@H]32)C1
pIC50 (CCRF-CEM [1]): 4.39 | pIC50 (MCF7): < 4.30 | pIC50 (HeLa): < 4.30 | pIC50 (BJ): < 4.30

C/C=C(\C[C@@H](C)CO)C(=O)[C@@H](C)[C@H]1[C@@H](OC(C)=O)C[C@H]2[C@@H]3CC=C4C[C@@H](OC(C)=O)CC[C@]4(C)[C@H]3CC(=O)[C@]12C
pIC50 (CCRF-CEM [1]): 4.72 | pIC50 (MCF7): < 4.30 | pIC50 (HeLa): < 4.30 | pIC50 (BJ): < 4.30

CC(C)CCC[C@@H](C)[C@H]1CC[C@H]2[C@@H]3CC=C4C[C@@H](O)CC[C@]4(C)[C@H]3CC[C@]12C [CHOLESTEROL]
pIC50 (CCRF-CEM [1]): < 4.30 | pIC50 (MCF7): < 4.30 | pIC50 (HeLa): < 4.30 | pIC50 (BJ): < 4.30

CC(=O)O[C@H]1CC[C@@]2(C)C(=CC[C@H]3[C@@H]4C[C@H](OC(C)=O)[C@H]([C@H](C)C(=O)C5=C(C)OC[C@H](C)C5)[C@@]4(C)C(=O)C[C@@H]32)C1
pIC50 (CCRF-CEM [1]): 4.98 | pIC50 (MCF7): 4.33 | pIC50 (HeLa): < 4.30 | pIC50 (BJ): < 4.30

C/C=C(\C[C@@H](C)CO)C(=O)[C@@H](C)[C@H]1[C@@H](OC(C)=O)C[C@H]2[C@@H]3CC=C4C[C@@H](OC(C)=O)CC[C@]4(C)[C@H]3CC[C@]12C
Activity (CCRF-CEM [2]): Dose-dependent effect | pIC50 (CCRF-CEM [1]): 4.95 | pIC50 (MCF7): < 4.30 | Activity (CCRF-CEM [3]): Active | pIC50 (HeLa): < 4.30 | Activity (CCRF-CEM [4]): Active | fold change (FC) (CCRF-CEM [5]): 2.4 | Activity (CCRF-CEM [6]): Active | Activity (CCRF-CEM [7]): Dose-dependent effect | Activity (CCRF-CEM [8]): Dose-dependent effect | Activity (CCRF-CEM [9]): Active | pIC50 (BJ): < 4.30 | Activity (CCRF-CEM [10]): Active

C/C=C(\C[C@@H](C)CO)C(=O)[C@@H](C)[C@H]1[C@@H](OC(C)=O)C[C@H]2[C@@H]3CC[C@H]4C[C@@H](OC(C)=O)CC[C@]4(C)[C@H]3CC[C@]12C
Activity (CCRF-CEM [2]): Dose-dependent effect | pIC50 (CCRF-CEM [1]): 5.23 | pIC50 (MCF7): 4.83 | Activity (CCRF-CEM [3]): Active | pIC50 (HeLa): < 4.30 | Activity (CCRF-CEM [4]): Active | fold change (FC) (CCRF-CEM [5]): 4.3 | Activity (CCRF-CEM [6]): Active | Activity (CCRF-CEM [7]): Dose-dependent effect | Activity (CCRF-CEM [8]): Dose-dependent effect | Activity (CCRF-CEM [9]): Active | pIC50 (BJ): < 4.30 | Activity (CCRF-CEM [10]): Active
